Experiments:
[1] = system: alloxan-induced diabetic rat model; experiment: Oral anti-hyperglycemic activity, blood glucose level in alloxan-induced diabetic rat model; format: in vivo, Albino male Wistar rats
Procedure: Albino male Wistar rats (150 ± 20 g) were obtained. (Supplementary Materials).
The animals were kept fasting overnight (12 h) before induction of diabetes. Diabetes was induced in rats as reported and (Supplementary Materials).
Blood samples were obtained from the tail vein of all rats, the blood glucose levels (BGLs) were measured and monitored in all treatment groups at days 0 (basal), 2, 4, 15 and 30 as reported.
Oral anti-hyperglycemic activity was evaluated for compounds 4–7 by an alloxan-induced diabetic rat model. […] The BGL was monitored for each tested compound at three different doses (50,100 and 250 mg/Kg) and for five experimental period durations (0, 2, 4, 15, 30 days). […]
The animals were kept fasting overnight (12 h) before induction of diabetes. […]

[2] = system: alloxan-induced diabetic rat model; experiment: Serum lipid profile (CH, TG, HDL, LDL, VLDL) in alloxan-induced diabetic rats; format: in vivo, Albino male Wistar rats; conditions: 50 mg/Kg; for Serum CH (cholesterol) level: all experimental times
Procedure: The blood samples (0.5 mL) were withdrawn from each rat using the retro-orbital plexus and the other steps for biochemical analysis were adapted. (Supplementary Materials).
The serious side effect related to diabetes is hyperlipidemia. The insulin deficiency promotes adipocytes to generate fatty acid, hepatic phospholipids and cholesterol. Thus, the levels of cholesterol (CH), triglyceride (TG), high (HDL), low (LDL) and very low (VLDL) density lipoproteins, in serum for alloxan-loaded diabetes have been measured at 50 mg/Kg concentration (Figure 7). All lipid parameters for all tested compounds have (p < 0.05) compared to the diabetic control group (Figure 7).
Figure 7 The level of (A) CH (Cholesterol); (B) TG (Triglyceride); (C) HDL (High density lipoprotein); (D) LDL (Low density lipoprotein) and (E) VLDL (Very low density lipoprotein) in serum of hyperglycemic loaded rats. […] Data analyzed by one way ANOVA followed by LSD test and expressed as mean ± SEM from five observations. […]
glucose level of rats was determined using glucose strips. Rats with plasma glucose concentration N 300 mg/dl (Gadadare et al., 2015) were considered diabetic and included […]
The blood samples (0.5 ml) were withdrawn from the retro-orbital plexus of each rat under mild anesthesia using a glass capillary tube after fasting for 6 h. Blood samples were centrifuged at 3000 rpm for 15 min. The serum was kept at −80 °C until analyzed. Speciﬁc reagent kits were used to determine levels of serum triglyceride (TG), serum cholesterol (CH), serum low density lipoproteins (LDL), serum high density lipoproteins (HDL) for assessing the lipid proﬁle.
Data are expressed as mean ± S.E. Data analysis was done using one way analysis of variance (ANOVA) followed by least significant difference (LSD) test for multiple comparisons. Difference was considered significant when p is less than 0.05. SPSS (version 11) program was used to carry out

α-amylase enzyme = experiment: In vitro inhibition of α-amylase assay; format: biochemical; conditions: six concentrations 5-40 µg/mL, non-linear regression; read-out: IC50 against α-amylase enzyme (converted)
Procedure: - inhibition in-vitro of α-Amylase assay:
The α-amylase activity of the compounds were determined using a method in which 250 μL of each compound, or Metformin .HCl, dissolved in ethanol to obtain different concentrations (5, 10, 15, 20,30 and 40 μg/mL ), was mixed with 500 μL of α-amylase (2 U/mL ) in phosphate buffer (100 mM, pH 6.8) and incubated at 37 °C for 10 min. Thereafter, 50 μL
(1 picture or pasted object on this page, not shown here) […]
of 1% starch, dissolved in the same buffer, was added to the mixture and the samples were incubated again at 37 °C. After 30 min, dinitrosalicylic acid (DNS) colour reagent (1 mL) was added. The (DNS) was prepared by adding 437mg of 3,5- dinitro salicylic acid in 20 mL distilled water to12 g of sodium potassium tartrate in 8 mL of 2 M NaOH, then added distilled water until the solution reach to 40 mL ). the samples were boiled for 10 min in water bath. For non-enzymatic reactions, the assays were performed with a blank containing all of the components except the enzyme.

[3] = Radical scavenging by DPPH method; conditions: DPPH assay
Procedure: The assay of 2,2-Diphenyl-1-picrylhydrazyl radical (DPPH) was performed according to the method at.
The antioxidant activity was examined for the hybrids (4–7) using the stable DPPH assay. The antioxidant results from different concentrations (0.16, 0.8, 4, 20, 40, 200 and 1000 µg/mL) were represented in Figure 5 as IC50 value (concentration of compound is essential for rising 50% of reducing power for H-donating or radical scavenging). The effect of the scavenging is rising in the trend 4 > 5 > 6 > STD > 7. […] After blocking the hydrazide group by aldehyde motifs in compounds 6 and 7, the activity was decreased. High scavenging activity may be due to the stabilization of the lone pair in the conjugated system by the presence of terminal ester or hydrazide.

α-amylase enzyme, sequence (P04746 16-511): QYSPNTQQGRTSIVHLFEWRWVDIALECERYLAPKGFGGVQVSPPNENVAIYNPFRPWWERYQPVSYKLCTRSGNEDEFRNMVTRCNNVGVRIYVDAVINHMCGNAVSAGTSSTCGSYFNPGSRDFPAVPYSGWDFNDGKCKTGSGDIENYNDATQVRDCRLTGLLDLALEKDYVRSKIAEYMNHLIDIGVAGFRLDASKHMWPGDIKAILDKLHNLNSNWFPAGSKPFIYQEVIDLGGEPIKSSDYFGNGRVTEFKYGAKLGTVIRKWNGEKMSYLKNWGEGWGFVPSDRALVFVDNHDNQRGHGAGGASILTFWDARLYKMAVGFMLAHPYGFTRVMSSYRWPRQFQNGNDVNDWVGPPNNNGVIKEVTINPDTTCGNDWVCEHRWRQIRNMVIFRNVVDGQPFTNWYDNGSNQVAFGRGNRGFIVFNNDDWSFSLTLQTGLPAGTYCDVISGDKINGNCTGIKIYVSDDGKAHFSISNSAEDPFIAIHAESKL

## 5-(Benzo[d][1,3]dioxol-5-ylmethylene)-3-(2-(2,4-dioxo thiazolidin-3-yl) acetyl) thiazolidine-2,4-dione [Compound 6]
[1]; 50 mg/Kg, 2nd and 4th days
  Blood glucose level (BGL) compared to DC: suffered from controlling the BGL
[1]; 100 mg/Kg, all of the experiments
  Blood glucose level (BGL) compared to DC: increased the BGL rather than DC
[2]; 2nd and 4th days
  Serum CH (cholesterol) level reduction: moderate reduction
[2]; 15th and 30th days
  Serum CH (cholesterol) level reduction: best reduction of the CH level
  Serum VLDL level: lower than normal value

## CCOC(=O)CN1C(=O)SC(=Cc2ccc3c(c2)OCO3)C1=O [Compound 4, Ethyl-2-(5-(benzo[d][1,3]dioxol-5-ylmethylene)-2,4-dioxothiazolidin-3-yl)acetate]
[1]; 50 mg/Kg, 2nd, 4th and 15th days
  Blood glucose level (BGL) compared to DC: suffered from controlling the BGL
[1]; 100 mg/Kg, 15th and 30th days
  Blood glucose level (BGL) compared to DC: significance decrease in the BGL
[1]; 250 mg/Kg, all durations of the experiment
  Blood glucose level (BGL) compared to DC: failed to control BGL
[2]; 0th and 15th days
  Serum VLDL level, regulation to nearly normal value: failed to do so
[2]; 2nd day
  Serum TG (triglyceride) level compared to DC: failed to regulate the TG level lower than the DC level
[2]; 2nd, 14th and 30th days
  Serum VLDL level: nearly normal value
[2]
  Serum CH (cholesterol) level: moderate regulation of the CH value

## NNC(=O)CN1C(=O)SC(=Cc2ccc3c(c2)OCO3)C1=O [Compound 5, 2-(5-(Benzo[d][1,3]dioxol-5-ylmethylene)-2,4-dioxothiazolidin-3-yl)acetohydrazide]
[1]; 100 mg/Kg, 15th and 30th days
  Blood glucose level (BGL) compared to DC: significance decrease in the BGL
[1]; 250 mg/Kg, 15th and 30th days
  Blood glucose level (BGL) regulation: organized the BGL more than 6
[2]; 2nd day
  Serum CH (cholesterol) level reduction: moderate reduction value
[2]; 15th and 30th days
  Serum CH (cholesterol) level reduction: best reduction of the CH level
  Serum VLDL level: lower than normal value

## COc1ccc(/C=N/NC(=O)CN2C(=O)S/C(=C/c3ccc4c(c3)OCO4)C2=O)cc1 [Compound 7]
[1]; 50 mg/Kg, 15th and 30th days
  Blood glucose level (BGL) reduction: highest percentage in the BGL reduction
[1]; 100 mg/Kg, 15th and 30th days
  Blood glucose level (BGL) compared to DC: insignificant decrease in the BGL
[1]; 250 mg/Kg, 4th, 15th and 30th days
  Blood glucose level (BGL) compared to DC: reduced BGL significantly
[2]
  Serum CH (cholesterol) level: worst CH level from all compounds
α-amylase enzyme
  IC50: 130 µM
[3]
  Antioxidant (scavenging) activity compared to STD (ascorbic acid): lower scavenging activity than STD

Source: PMC8838189, “Thiazolidinedione Derivatives: In Silico, In Vitro, In Vivo, Antioxidant and Anti-Diabetic Evaluation” (Molecules, 2022)
